# Literature values in patent US9072700B2, “Methods of using derivatives of (−)-venlafaxine” (Sunovion Pharmaceuticals Inc., priority 1998, dated 2015).
# Legend:
# [1] = tested on: dopamine uptake; settings: in vitro; Muth et al. 1991
# [2] = Klamerus et al. 1992
# [3] = tested on: norepinephrine uptake; settings: in vitro; Muth et al. 1991
# [4] = tested on: serotonin uptake; settings: Howell et al. 1994
# [5] = tested on: norepinephrine synaptosomal uptake; settings: Howell et al. 1994
smiles,measurement,setting,value
"CN(C)CC(c1ccc(O)cc1)C1(O)CCCCC1 (racemic) [O-desmethylvenlafaxine, (±)-1-[2-(dimethylamino)-1-(4-phenol)ethyl]cyclohexanol]",inhibition of dopamine uptake compared with racemic venlafaxine,[1],more potent inhibitor
same,half-life (t½),[2],about 10 hours
same,half-life relative to that of venlafaxine,[2]; ratio to venlafaxine half-life,approximately 2.5 times
same,inhibition of norepinephrine uptake compared with racemic venlafaxine,[3],more potent inhibitor
"COc1ccc(C(CN(C)C)C2(O)CCCCC2)cc1 (single isomer, unassigned; (+)) [(+) enantiomer]","selectivity in inhibiting serotonin uptake, enantiomer comparison",[4],more selective
COc1ccc([C@H](CN(C)C)C2(O)CCCCC2)cc1 [(−) enantiomer],"inhibition of norepinephrine synaptosomal uptake, enantiomer comparison",[5],more potent inhibitor
